“And” between values parts separate entries of the source, which are not always exact repeats. Equal entries are not always repeated. Where two headings read alike, the source gives them in different places.

This is an account of results in patent US20090285899A1, “COMBINATION OF DEHYDROEPIANDROSTERONE OR DEHYDROEPIANDROSTERONE-SULFATE WITH A METHYLXANTHINE DERIVATIVE FOR TREATMENT OF ASTHMA OR CHRONIC OBSTRUCTIVE PULMONARY DISEASE” (priority 2003, published 2009).

Series [1] is described as follows: Particle size of jet-milled / spray-dried DHEA-S (Malvern Mastersizer X, light microscope). Particulars: double pass through the jet mill. The format is physicochemical. On the procedure:
Approximately 1 g sample was passed through the jet mill, once, and approximately 2 g sample were passed through the jet mill twice. […] The resulting solution was sonicated for 3 minutes and appeared fully dispersed. The dispersed solutions were tested on a Malvern Mastersizer X with a small volume sampler (SVS) attachment. One sample of dispersed material was tested 5 times. The median particle size or D (v, 0.5) of unmilled material was 52.56 μm and the % RSD (relative standard deviation) was 7.61 for the 5 values. The D (v, 0.5) for a single pass through the jet mill was 3.90 μm and the % RSD was 1.27, and the D (v, 0.5) from a double pass through the jet mill […] and the % RSD was 3.10.
The solution was spray-dried with a B-191 Mini Spray-Drier (Buchi, Flawil, Switzerland) with an inlet temperature of 55° C., outlet temperature of 40° C., at 100% aspirator, at 10% pump, nitrogen flow at 40 mbar and spray flow at 600 units. The spray-dried product was suspended in hexane and Span85 surfactant added to reduce agglomeration. The dispersions were sonicated with cooling for 3-5 minutes for complete dispersion and the dispersed solutions tested on a Malvern Mastersizer X with a Small Volume Sampler (SVS) attachment. […] Visual examination by light microscope of the dispersions of each batch confirmed that spray drying produced small respirable size particles. […]

The nature of series [2]: Physicochemical testing of DHEA-S dihydrate before and after micronization. The conditions noted are these: for Water: Karl Fischer. On the procedure: Surface area is determined using five point BET analyses are performed with nitrogen as the adsorbing gas (P/Po=0.05 to 0.30) using a Micromeritics TriStar surface area analyzer. Particle size distributions are measured by laser diffraction using a Micromeritics Saturn Digisizer where the particles are suspended in mineral oil with sodium dioctyl sodium sulfosuccinate as a dispersing agent. Drug substance water content is measured by Karl Fischer titration (Schott Titroline KF). Pure water is used as the standard and all relative standard deviations for triplicates are less than 1%. Powder is added directly to the titration media.

The subject of the next series is Intracellular adenosine. The format is in vivo, rat. On the procedure: Folinic acid (50 mg/kg) was administered intraperitoneally once daily for fourteen days. […] Hearts were removed from animals and flash frozen in liquid nitrogen with 10 s of death. Liver and lungs were removed en bloc and flash frozen with […]. Brain tissue was subsequently dissected.

A further series can be described thus: Solubility of DHEA-S. The format is physicochemical. The source says: Inhalation of pure water can produce a cough stimulus. […] The temperature effect is weaker at high NaCl concentrations.
The test system of series [3] is HT-29 SF cells. The experiment in a line: DHEA effect on cell cycle (flow cytometry). The format is cell-based, human. Particulars: 25-200 μM, 24-72 hours. On the procedure: Cells were plated at 10^5/60-mm dish in duplicate. […] Cultures were trypsinized following 0, 24, 48, or 74 hours and fixed and stained using a modification of a procedure of Bauer et al., Cancer Res. 46, 3173-3178 (1986). Briefly, cells were collected by centrifugation and resuspended in cold phosphate-buffered saline. Cells were fixed in 70% ethanol, washed, and resuspended in phosphate-buffered saline.
After 24, 48, and 72 hours, cells were harvested, fixed in ethanol, and stained with propidium iodide, and the DNA content/cell was determined by flow cytometric analysis. The percentage of cells in G1, S, and G2M phases was calculated using the Cellfit cell cycle analysis program. S phase is marked by a quadrangle for clarity. Representative histograms from duplicate determinations are shown. The experiment was repeated three times.
On the technique in general: A flow cytometer gives signals particle by particle.

Series [4] deals with HT-29 SF cells. Kind of series: DHEA effect on cell growth. The conditions noted are these: 12.5-200 μM, 24-72 hours.
Experimental: Cell cultures, HT-29 SF cells, which represent a subline of HY-29 cells (ATCC, Rockville, Md.) and are adapted for growth in completely defined serum-free PC-1 medium (Ventrex, Portland, Me.), were obtained. Stock cultures were maintained in this medium at 37° C. (in a humidified atmosphere containing 5% CO2).
In series [5] the test system is HT-29 SF cells. The experiment in a line: Reversal of DHEA-mediated growth inhibition. It is filed as cell-based, human. Particulars: 25 μM DHEA, 48 hours of treatment.
For series [6] the following is noted: COPD patients, background; cited from earlier work.
The test system of series [7] is HT-29 SF cells. The experiment in a line: Reversal of DHEA effect on cell cycle. It is filed as cell-based, human. The conditions noted are these: 25 FM DHEA.
Series [8] is described as follows: Short-term solution stability of DHEA-S nebulizer formulation. The format is physicochemical. Particulars: 10 mg/mL in 0.12% NaCl, RT (24-26° C.). On the procedure: Aliquots of this solution are filled into clear glass vials and stored at RT (24-26° C.) and at 40° C. The samples are checked daily for DHEA-S content, DHEA content, and appearance. For each time point, duplicate samples are withdrawn and diluted from each vial. […] The study is stopped on day three. […] The solution should easily be stable for the day of reconstitution in a clinical trial. The following section describes the aerosol properties of this formulation.

A further series has as its system Human ASM cells. Kind of series: [3H]-thymidine incorporation (DNA synthesis) in human airway smooth muscle cells. The format is cell-based. The conditions noted are these: alone or in combinations. From the text: Human ASM cells were obtained from the distal trachea of transplant donors in compliance with the University of Pennsylvania's Institutional Review Board. Distal trachealis was dissected free of connective tissue and enzymatically digested to yield approximately 1×10^4 human ASM cells. […] The cells were scraped and placed on filters which were then counted using a beta counter. All experiments were repeated in a minimum of three human ASM cell lines. All conditions per experiment were run with six replicates.
There are three classes of commonly used anti-asthma medications that alter cAMP concentrations and/or adenosine concentrations. These classes of drugs are: methylxanthines, beta-agonists and phosphodiesterase inhibitors. For each of these drug classes, isobutylmethylxanthine (IBMX) was used as the tool compound to inhibit smooth muscle proliferation.

On to `C[C@]12CC[C@H](OS(=O)(=O)[O-])CC1=CC[C@@H]1[C@@H]2CC[C@]2(C)C(=O)CC[C@@H]12.[Na+]` [Anhydrous DHEA-S, sodium dehydroepiandrostenone sulfate], for which the “Median particle size D (v, 0.5)” value in series [1] is 3.25 ™.

For the compound `C[C@]12CC[C@H](OS(=O)(=O)[O-])CC1=CC[C@@H]1[C@@H]2CC[C@]2(C)C(=O)CC[C@@H]12.[Na+]` [DHEA-S dihydrate, sodium dehydroepiandrostenone sulfate], the Impurities result in series [2] (Bulk) and in [2] (Micronized) was “No significant peaks” in each case. Besides, the Water in series [2] (Bulk) stood at 8.5 % w/w; in [2] (Micronized), 8.4 % w/w. In series [2] (Micronized, five point BET), the Surface area is recorded as 4.9 m^2/g.

As to `Nc1nc(=O)c2c([nH]1)NCC(CNc1ccc(C(=O)N[C@@H](CCC(=O)O)C(=O)O)cc1)N2C=O` (mixture of isomers) [Folinic Acid, Folinic acid], the “Effect of folinic acid alone on adenosine levels” value with Intracellular adenosine (administered alone) is listed as “increase in adenosine levels for all organs studied”. Further, the “Effect of coadministered folinic acid on steroid-mediated adenosine depletion” value in the series with Intracellular adenosine (coadministration with DHEA or methyltestosterone) was “completely abrogated steroid-mediated adenosine depletion”.

Turning to `C[C@]12CC[C@H](O)CC1=CC[C@@H]1[C@@H]2CC[C@]2(C)C(=O)CC[C@@H]12` [DHEA, 3β-hydroxyandrost-5-en-17-one], the “Solubility in water (in words)” value in the series “Solubility of DHEA-S” (water) is recorded as “insoluble in water”. Besides, the “Cell cycle effect (in words)” value in the series with HT-29 SF cells [3] was “produced a G1 block in HT-29 SF cells in a time- and dose-dependent manner”. For the same compound, the “Inhibition of growth (in words)” value in the series with HT-29 SF cells [4] was “time- and dose-dependent inhibition of growth”. Further, the “Effect on tissue adenosine (in words)” value in the series with Intracellular adenosine (rat, in vivo) was “multi-organ depletion of adenosine”.

Consider `C[C@]12CCC(=O)C=C1CC[C@@H]1[C@@H]2CC[C@@]2(C)[C@H]1CC[C@]2(C)O` [Methyltestosterone, methyltestosterone], for which the “Effect on tissue adenosine (in words)” value with Intracellular adenosine (daily for two weeks) is “multi-organ depletion of adenosine”.

In the case of `CC(C)=CCC/C(C)=C/CC/C(C)=C/CC/C=C(\C)CC/C=C(\C)CCC=C(C)C` [SQ, squalene], the “Effect of supplement on DHEA-induced growth inhibition” value in the series on HT-29 SF cells [5] was “no such effect”.

With `Cn1c(=O)c2[nH]cnc2n(C)c1=O` [Theophylline, 3,7-dihydro-1,3-dimethyl-1H-purine-2,6-dione], the “Serum concentrations required for optimal effects” value in [6] is 15000 to 20000 ng/mL.

As to `C[C@@](O)(CCO)CC(=O)O` [MVA, mevalonic acid], the “Effect of supplement on DHEA-induced reduction of S phase cells” value in the series on HT-29 SF cells [7] (48 hours) is given as “partially prevented this effect”; in the series with HT-29 SF cells [7] (72 hours), “not after 72 hours”. Further, the “Effect of supplement on DHEA-induced growth inhibition” value in the series on HT-29 SF cells [5] is given as “partially overcome”.

As to `C[C@]12CC[C@H](OS(=O)(=O)[O-])CC1=CC[C@@H]1[C@@H]2CC[C@]2(C)C(=O)CC[C@@H]12.[Na+]` [DHEA-S, sodium dehydroepiandrostenone sulfate], the “Appearance of solution on storage” value in series [8] is “a slight precipitate is observed on the third day”. The “Estimated DHEA-S concentration in solution” value in the series “Solubility of DHEA-S” (15° C., 20 mM Na+, Ksp 1316 mM^2) was 27.5 mM and 10.7 mg/mL. In addition, the “Ksp at 15° C.” value in the series “Solubility of DHEA-S” (interpolated versus reciprocal of absolute temperature) amounted to 1316 mM^2. Besides, in the series with Human ASM cells, the “Effect on smooth muscle proliferation without EGF stimulation (FIG. 18)” value is reported as “neither IBMX nor DHEA-S alone or in combinations inhibits smooth muscle proliferation”.

For `CC(C)CCC[C@@H](C)[C@H]1CC[C@H]2[C@@H]3CC=C4C[C@@H](O)CC[C@]4(C)[C@H]3CC[C@]12C` [CH, cholesterol], the “Effect of supplement on DHEA-induced reduction of S phase cells” value was “very little effect” in the series with HT-29 SF cells [7] (48 hours) and “no effect” in the series with HT-29 SF cells [7] (72 hours). In addition, the “Effect of supplement on DHEA-induced growth inhibition” value in the series with HT-29 SF cells [5] is “no such effect”.
